Measured values taken from PMC12767106, “In Situ Assembly of Transformable Monopeptide on Activated Neutrophils Attenuates NETs‐Induced Hepatocellular Carcinoma Metastasis by Disrupting NE Nuclear Translocation” (Advanced Science, 2025).

Tested on: activated neutrophils
Test: NETs formation (MPO-DNA ELISA, CitH3 immunofluorescence and Western blot)
Format: cell-based, mouse
Details: PMA-activated neutrophils, 50 µM, 4 h, CitH3 staining and Western blot
Description: Submitted to Advanced Science
Neutrophil Elastase Activity Assay
To evaluate the distribution of active NE on the surface and inside of neutrophils, we used a kit (AkrivisBio’s Neutrophil Elastase Activity Assay, MA-0156), seeded neutrophils in confocal microscopy dishes, and then treated them with NFTP-NPs (50 µM, medium: DMSO = 99:1, v/v), FTP-NPs (50 µM, medium: DMSO = 99:1, v/v), PMA+NFTP-NPs (50 µM, medium: DMSO = 99:1, v/v), and PMA+FTP-NPs (50 µM, medium: DMSO = 99:1, v/v) at 37°C. Because the Neutrophil elastase in the kit cleaves a concrete fluorogenic substrate which releases AFC, providing intense fluorescence, 50 μl of MeOSucc-AAPV-AFC mix (Assay Buffer: MeOSucc-AAPV-AFC = 48:2) was added at 4 h, and after incubation for 1 h, the samples were examined by CLSM (LSM980, Zeiss, Germany).
Quantitative analysis of NE activity […]
DMSO = 99:1, v/v) for 4 h to obtain the solution.35,36 Quantitative analysis was carried out by a NETosis Assay Kit (Cayman Chemical, USA).
Quantitative induction analysis of NETs in vitro […]
According to the manufacturer's instructions, MPO -DNA levels in cultured supernatant were analyzed by an ELISA kit (MEIMIAN, China).38 Briefly, samples were added to each well and incubated with anti -MPO and anti-DNA antibodies for 2 h at room temperature. […] The OD value w as then measured by a microplate […]

PpIX-GFFVLK-EAIPMSIPPEVK [FTP-NPs]
formation of NETs: effectively inhibit the formation of NETs
